Earlier results, collected in patent USRE45822E1, “Oral dosage form comprising a therapeutic agent and an adverse-effect agent” (Purdue Pharma L.P., priority 2001, dated 2015).

Settings: administered orally; retain much of their efficacy

Structure (SMILES): O=C1CC[C@@]2(O)[C@H]3Cc4ccc(O)c5c4[C@@]2(CCN3CC2CC2)[C@H]1O5 [naltrexone]
- duration of action: ~24 h

Structure (SMILES): C[C@H]1[C@H]2Cc3ccc(O)cc3[C@]1(C)CCN2CC1CC1 [cyclazocine]
- duration of action: ~24 h
